From patent US9371387B2 (GACHON UNIVERSITY OF INDUSTRY-ACADEMIC COOPERATION …, priority 2011, dated 2016)

Test system: human macrophage cells
Experiment: AGE-albumin synthesis and release by macrophages under oxidative stress (ELISA)
Assay type: cell-based
Conditions: FIG. 3
Experimental: For the in vitro study, immortal human macrophage cells were employed. The macrophages were grown in DMEM (Dulbecco's modified Eagle's medium, Gibco)-high glucose supplemented with 10% heat-inactivated FBS (fetal bovine serum, Gibco) and […] gentamicin (Sigma-Aldrich) at 37° C. in a 5% CO2 atmosphere.
After incubation at 4° C. for 12 hrs, the plates were washed three times with 1×PBS to remove the antibody which remained non-immobilized to the well, and then was filled with 5% BSA. […] After the plates were washed three time with 1×PBS to remove the antigens which remained unreacted, an anti-AGE antibody (Abcam) was applied at a concentration of 1 ug/ml to each well and incubated at room temperature for 2 hrs. The antibody remaining unreacted was washed off with 1×PBS. Each well was incubated with 1 ug/ml peroxidase-conjugated secondary antibody (Vector laboratory) at room temperature for 2 hrs and washed with 1×PBS to remove the secondary antibodies which remained unreacted. Color was developed with TMB (3,3′,5,5′-tetramethylbenzidine) at room temperature for 20 min. When the TMP buffer turned dark blue, the color development was stopped with 2NH2SO4. Absorbance at 450 nm was read on an ELISA reader (VERSA Max, Molecular Devices) (FIG. 1).

SMILES | expression level of AGE-albumin (macrophages, addition of antioxidant, irrespective of hypoxia (H2O2)) | amount of AGE-albumin (macrophages exposed to hydrogen peroxide)
O=C1O[C@H]([C@@H](O)CO)C(O)=C1O [ascorbic acid] | drastically reduced | 
OO [hydrogen peroxide] |  | increased in a concentration-dependent manner
